In experiment [1] the target is T1, Norepinephrine transporter (Rattus norvegicus, UniProt Q9WTR4). As to the kind of experiment: Inhibition of rat brain Norepinephrine transporter as accumulation of [3H]NE. The format is functional.
Experiment [2] deals with T2, Sodium-dependent serotonin transporter (Rattus norvegicus, UniProt P31652). As to the kind of experiment: Inhibition of rat brain Serotonin transporter uptake as [3H]5-HT accumulation.
In experiment [3] the target is Monoamine transporters; serotonin & dopamine (Rattus norvegicus) (UniProt P31652+P23977). Put plainly: Ratio between Dopamine transporter and Serotonin transporter uptake. It is filed as protein assay.
The target in experiment [4] is Monoamine transporters; Norepininephrine & dopamine (Rattus norvegicus) (UniProt P23977+Q9WTR4). As to the kind of experiment: Ratio between Dopamine transporter and Norepinephrine transporter uptake. It is filed as protein assay.
In experiment [5] the target is T2, Sodium-dependent serotonin transporter. As to the kind of experiment: Inhibition of rat brain Serotonin transporter as accumulation of [3H]5-HT. It is filed as functional.
Experiment [6] concerns the target T3, Sodium-dependent dopamine transporter (Rattus norvegicus, UniProt P23977). As to the kind of experiment: Inhibition of rat brain dopamine transporter as accumulation of [3H]DA. It is filed as functional.
Experiment [7] addresses T3, Sodium-dependent dopamine transporter. Put plainly: Inhibition of rat brain Dopamine transporter uptake as [3H]DA accumulation. The format is functional.
For experiment [8], the target named is Monoamine transporters; Norepinephrine & serotonin (Rattus norvegicus) (UniProt P31652+Q9WTR4). As to the kind of experiment: Ratio between Serotonin transporter and Norepinephrine transporter uptake. It is filed as protein assay.
Experiment [9] addresses T1, Norepinephrine transporter. Put plainly: Inhibition of rat brain Norepinephrine transporter as accumulation of [3H]-NE. The format is functional.
In experiment [10] the target is T3, Sodium-dependent dopamine transporter. Put plainly: Inhibition of [3H]WIN-35428 binding to rat brain dopamine transporter.

By IC50 is commonly meant the concentration needed to halve the response being measured. The low end stands for higher potency, the high end for lower potency. The Ki is the equilibrium dissociation constant of an inhibitor or competing ligand from its target. Higher therefore signals a looser hold on the target.

T2 sequence (P31652 whole entry): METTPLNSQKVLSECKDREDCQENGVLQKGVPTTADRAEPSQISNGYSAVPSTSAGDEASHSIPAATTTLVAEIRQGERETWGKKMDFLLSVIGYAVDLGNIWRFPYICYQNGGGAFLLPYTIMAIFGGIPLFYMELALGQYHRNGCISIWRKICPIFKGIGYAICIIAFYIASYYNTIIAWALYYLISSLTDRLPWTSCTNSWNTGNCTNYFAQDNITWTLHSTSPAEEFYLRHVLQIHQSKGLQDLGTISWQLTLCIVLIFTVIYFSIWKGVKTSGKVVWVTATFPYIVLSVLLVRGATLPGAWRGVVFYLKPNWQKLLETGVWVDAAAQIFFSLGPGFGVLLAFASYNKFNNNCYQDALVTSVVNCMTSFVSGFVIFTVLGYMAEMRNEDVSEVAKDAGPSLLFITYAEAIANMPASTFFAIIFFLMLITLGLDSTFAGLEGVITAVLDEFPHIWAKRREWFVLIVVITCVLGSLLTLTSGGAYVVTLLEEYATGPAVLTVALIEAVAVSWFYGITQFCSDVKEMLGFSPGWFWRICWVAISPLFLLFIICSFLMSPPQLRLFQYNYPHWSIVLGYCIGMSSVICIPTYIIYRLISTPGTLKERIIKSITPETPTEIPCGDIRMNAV
T3 sequence (P23977 whole entry): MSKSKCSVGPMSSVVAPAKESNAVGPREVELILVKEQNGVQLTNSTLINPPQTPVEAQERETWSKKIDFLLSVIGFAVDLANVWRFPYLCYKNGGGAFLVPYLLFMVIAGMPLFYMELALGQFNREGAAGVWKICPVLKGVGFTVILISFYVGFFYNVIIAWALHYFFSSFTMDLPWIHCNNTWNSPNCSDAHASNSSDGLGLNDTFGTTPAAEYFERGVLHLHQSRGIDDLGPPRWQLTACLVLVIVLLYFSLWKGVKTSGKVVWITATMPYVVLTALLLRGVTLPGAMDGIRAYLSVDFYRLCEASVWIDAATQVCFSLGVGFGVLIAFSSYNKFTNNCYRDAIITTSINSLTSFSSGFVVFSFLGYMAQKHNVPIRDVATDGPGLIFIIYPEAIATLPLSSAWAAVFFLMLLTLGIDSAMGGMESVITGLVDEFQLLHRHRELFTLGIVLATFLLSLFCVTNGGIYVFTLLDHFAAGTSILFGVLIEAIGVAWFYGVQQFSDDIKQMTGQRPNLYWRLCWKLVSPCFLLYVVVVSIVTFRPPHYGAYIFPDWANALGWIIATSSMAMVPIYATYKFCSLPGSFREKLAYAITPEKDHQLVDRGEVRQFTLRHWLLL
Sequence of Monoamine transporters; serotonin & dopamine (Rattus norvegicus) (P23977 whole entry, looked up): as the sequence (P23977 whole entry) above
Sequence of Monoamine transporters; serotonin & dopamine (Rattus norvegicus) (P31652 whole entry, looked up): as the sequence (P31652 whole entry) above
T1 sequence (Q9WTR4 whole entry): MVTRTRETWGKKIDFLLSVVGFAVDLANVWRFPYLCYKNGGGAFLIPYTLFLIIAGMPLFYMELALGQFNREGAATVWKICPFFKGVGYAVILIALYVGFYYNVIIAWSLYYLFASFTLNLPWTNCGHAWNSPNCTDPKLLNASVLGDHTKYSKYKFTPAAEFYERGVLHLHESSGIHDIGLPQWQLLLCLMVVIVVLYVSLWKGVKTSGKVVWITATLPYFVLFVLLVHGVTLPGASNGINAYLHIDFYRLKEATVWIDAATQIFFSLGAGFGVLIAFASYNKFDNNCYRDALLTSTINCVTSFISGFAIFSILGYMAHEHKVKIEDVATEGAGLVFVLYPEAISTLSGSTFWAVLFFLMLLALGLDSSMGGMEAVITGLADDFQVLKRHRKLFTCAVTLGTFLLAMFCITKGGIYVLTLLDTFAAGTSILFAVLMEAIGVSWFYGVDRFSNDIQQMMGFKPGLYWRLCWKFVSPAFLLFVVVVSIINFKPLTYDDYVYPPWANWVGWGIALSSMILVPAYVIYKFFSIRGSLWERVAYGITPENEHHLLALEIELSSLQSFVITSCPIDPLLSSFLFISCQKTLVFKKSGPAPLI

`OC1COC(C(c2ccccc2)c2ccccc2)CC1NCc1ccccc1` (single isomer, unassigned): the IC50 amounted to 3.22 µM in [1], 4.42 µM in [2], 0.962 µM in experiment [7] and 1.25 µM in experiment [10]. For the same compound, the Ratio was 0.18 in experiment [3], 0.25 in experiment [4] and 1.4 in experiment [8]. Further, the results for the Ki in [5], in experiment [6] and in experiment [9] were 3.97 µM, 0.716 µM and 2.89 µM, respectively.
As for `COc1ccc(CN[C@@H]2C[C@@H](C(c3ccccc3)c3ccccc3)OC[C@H]2O)cc1`, the IC50 was found to be 0.765 µM in experiment [1], 1.07 µM in experiment [2], 0.822 µM in [7] and 0.771 µM in [10]. Also, the Ratio in experiment [3] amounted to 0.77; in experiment [4], 0.89; in [8] it was 1.2. In addition, the Ki in experiment [5] was found to be 0.793 µM; in experiment [6] it was 0.611 µM; in experiment [9] it was 0.686 µM.
In turn, `COc1ccc(CN[C@@H]2CO[C@H](C(c3ccccc3)c3ccccc3)C[C@H]2O)cc1` returned a Ki in [9] of 0.0158 µM.
As to `O[C@@H]1C[C@@H](C(c2ccccc2)c2ccccc2)OC[C@H]1NCc1ccccc1`, the IC50 in experiment [2] came to 0.862 µM; in [7] it was 0.6 µM. Further, the Ki in experiment [5] turned out to be 0.707 µM; in experiment [6], 0.446 µM.
In the case of `O[C@@H]1C[C@@H](C(c2ccccc2)c2ccccc2)OC[C@H]1NCc1ccc(F)cc1`, the 50% inhibitory concentration (IC50) in experiment [1] was 0.0133 µM; in [2] it was 0.676 µM; in [7], 0.169 µM; in [10], 0.308 µM. Also, the Ratio in experiment [3] was found to be 0.21; in experiment [4], 10.2; in [8] it was 50. In addition, the Ki stood at 0.607 µM in experiment [5], 0.125 µM in experiment [6] and 0.0122 µM in experiment [9].
`OC1CC(C(c2ccccc2)c2ccccc2)OCC1NCCc1ccc(F)cc1` (single isomer, unassigned): the IC50 was determined as 0.0773 µM in experiment [1], 2.95 µM in experiment [2], 0.218 µM in experiment [7] and 0.443 µM in [10]. Besides, the Ratio in experiment [3] was 0.061; in experiment [4] it was 2.3; in experiment [8], 37. Further, the Ki in experiment [5] stood at 2.65 µM; in experiment [6] it was 0.162 µM; in experiment [9] it was 0.071 µM.
On to `O[C@@H]1CO[C@H](C(c2ccccc2)c2ccccc2)C[C@H]1NCc1ccccc1`, for which the IC50 turned out to be 0.336 µM in experiment [1], 10.6 µM in [2], 2.61 µM in experiment [7] and 4.64 µM in experiment [10]. The Ratio in experiment [3] was 0.2; in experiment [4] it was 6.6; in experiment [8], 32. Also, the Ki in experiment [5] came out at 9.56 µM; in [6], 1.94 µM; in experiment [9] it was 0.296 µM.
Consider `O[C@@H]1C[C@@H](C(c2ccccc2)c2ccccc2)OC[C@H]1NCCc1ccc(F)cc1`, for which the IC50 turned out to be 0.439 µM in experiment [1], 3.57 µM in experiment [2], 0.427 µM in [7] and 1.05 µM in [10]. For the same compound, the figures for the Ratio in [3], in [4] and in experiment [8] were 0.099, 0.78 and 7.9, respectively. Besides, the Ki in experiment [5] is 3.21 µM; in experiment [6] it was 0.317 µM; in [9], 0.406 µM.
On to `COc1cc(CN[C@@H]2CO[C@H](C(c3ccccc3)c3ccccc3)C[C@H]2O)cc(OC)c1`, for which the IC50 in experiment [1] turned out to be 0.108 µM; in [2] it was 0.0254 µM; in experiment [7], 0.135 µM; in experiment [10] it was 0.298 µM. Besides, the Ratio is 5.1 in [3], 0.99 in experiment [4] and 0.2 in [8]. Moreover, the Ki stood at 0.0197 µM in experiment [5], 0.1 µM in [6] and 0.101 µM in experiment [9].
`COc1ccc(CNC2COC(C(c3ccccc3)c3ccccc3)CC2O)cc1` (single isomer, unassigned): affinity in experiment [9] was put at a Ki of 0.412 µM.
Regarding `COc1ccc(CNC2CC(C(c3ccccc3)c3ccccc3)OCC2O)cc1` (single isomer, unassigned), the IC50 in [1] turned out to be 1.84 µM; in experiment [2], 3.81 µM; in experiment [7], 2.67 µM; in experiment [10] it was 3.75 µM. The Ratio in experiment [3] came to 0.58; in experiment [4] it was 1.2; in experiment [8], 2. Also, the figures for the Ki in experiment [5], in experiment [6] and in experiment [9] were 3.42 µM, 1.98 µM and 1.7 µM, respectively.
With `COc1ccc(CN[C@@H]2CO[C@H](C(c3ccccc3)c3ccccc3)C[C@H]2O)c(OC)c1`, the IC50 stood at 0.115 µM in experiment [1], 0.024 µM in experiment [2], 0.71 µM in experiment [7] and 1.06 µM in experiment [10]. For the same compound, the Ratio in experiment [3] amounted to 25; in [4] it was 5.6; in experiment [8], 0.22. In addition, the Ki in experiment [5] came out at 0.0208 µM; in experiment [6], 0.528 µM; in experiment [9] it was 0.095 µM.
Regarding `OC1CC(C(c2ccccc2)c2ccccc2)OCC1NCc1ccccc1` (single isomer, unassigned), the IC50 in experiment [2] came to 6.12 µM; in experiment [7] it was 0.341 µM; in [10], 0.596 µM. The Ki in [5] worked out at 5.5 µM; in experiment [6], 0.253 µM.
For `OC1CC(C(c2ccccc2)c2ccccc2)OCC1NCc1ccc(F)cc1` (single isomer, unassigned), the IC50 is 1.13 µM in [1], 5.56 µM in experiment [2], 0.44 µM in experiment [7] and 1.03 µM in [10]. For the same compound, the results for the Ratio in experiment [3], in experiment [4] and in experiment [8] were 0.065, 0.31 and 4.8, respectively. The Ki turned out to be 5 µM in experiment [5], 0.327 µM in experiment [6] and 1.05 µM in experiment [9].

For the origin of these results see ChEMBL document CHEMBL1140340 (J Med Chem, 2005).
